Results published in patent publication US20080015237A1 (ASTRAZENECA AB, priority 2006, published 2008).
pIC50: −log10 of the molar value.

The compounds below were run against human Kv1.5 channel (Homo sapiens, UniProt P22460) (assay: Test A: Rb+ efflux assay). Conditions: CHO cells stably transfected with cDNA for human Kv1.5.
Assay type: cell-based
Experimental: This assay identifies compounds that block the human Kv1.5 channel potassium channel heterologously expressed in Chinese Hamster Ovary (CHO) cells by means of Rb+ ion efflux using Flame Atomic Absorption Spectroscopy. For experimental studies, CHO cells stably transfected with cDNA for human Kv1.5 were grown as confluent layers in Falcon, 384-well tissue culture-treated black-walled clear-bottomed plates and the plates were incubated overnight at 37° C. in a cell culture incubator.
After incubating overnight the cell plates were washed and a buffer containing Rb+ ions were added to the cell plates. The plates were then incubated for another 3-4 hours in a CO2-incubator (37° C.). Following this incubation period plates were washed, compounds were added and subsequently a buffer containing elevated K+ concentrations were added in order to activate the Kv1.5 channel. Following a short incubation time, aliquots of the supernatants were transferred to supernatant plates for subsequent determination of the Rb+ content using Atomic Absorption Spectrometry (ICR8000 instrument, Aurora Biomed Inc.).

Sequence of human Kv1.5 channel (P22460 whole entry): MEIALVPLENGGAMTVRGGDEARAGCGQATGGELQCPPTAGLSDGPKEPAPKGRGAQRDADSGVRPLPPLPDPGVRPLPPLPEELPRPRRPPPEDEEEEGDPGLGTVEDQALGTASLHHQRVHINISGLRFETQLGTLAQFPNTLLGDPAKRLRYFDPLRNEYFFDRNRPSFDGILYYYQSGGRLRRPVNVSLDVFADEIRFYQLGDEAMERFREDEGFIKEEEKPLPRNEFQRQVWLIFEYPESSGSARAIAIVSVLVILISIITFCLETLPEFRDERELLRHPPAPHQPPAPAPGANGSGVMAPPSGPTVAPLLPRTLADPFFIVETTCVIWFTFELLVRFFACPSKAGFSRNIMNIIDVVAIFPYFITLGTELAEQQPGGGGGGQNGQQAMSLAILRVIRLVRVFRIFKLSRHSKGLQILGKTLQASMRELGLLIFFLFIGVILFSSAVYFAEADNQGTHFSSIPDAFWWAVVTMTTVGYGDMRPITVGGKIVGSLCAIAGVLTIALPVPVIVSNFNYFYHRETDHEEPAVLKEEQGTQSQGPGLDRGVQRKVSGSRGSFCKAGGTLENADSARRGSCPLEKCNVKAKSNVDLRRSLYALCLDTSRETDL

| Compound | pIC50 |
| --- | --- |
| CCCCNC(=O)C1c2cc(F)ccc2C(=O)N1CC(C)c1ccc(Cl)cc1 (single isomer, unassigned) [(1R or 1S)-N-butyl-2-[(2R or 2S)-2-(4-chlorophenyl)propyl]-6-fluoro-3-oxoisoindoline-1-carboxamide] | 6.30 |
| COc1ccc2c(c1OC)C(=O)N(CC(C)c1ccc(Cl)cc1)C2C(=O)NCc1ccccc1 (centres unmarked) [N-benzyl-2-[2-(4-chlorophenyl)propyl]-4,5-dimethoxy-3-oxoisoindoline-1-carboxamide] | 6.21 |
| CC(CN1C(=O)c2ccc(Cl)cc2C1C(=O)NCc1ccc(C(F)(F)F)nc1)c1ccc(Cl)cc1 (centres unmarked) [6-chloro-2-[2-(4-chlorophenyl)propyl]-3-oxo-N-{[6-(trifluoromethyl)pyridin-3-yl]methyl}isoindoline-1-carboxamide] | 6.38 |
| O=C(NCCCC(F)F)C1c2ccccc2C(=O)N1C(c1ccccc1)c1ccccc1 (centres unmarked) [N-(4,4-difluorobutyl)-2-(diphenylmethyl)-3-oxoisoindoline-1-carboxamide] | 5.10 |
| O=C(NCc1ccc(C(F)(F)F)nc1)C1c2ccccc2C(=O)N1Cc1ccccc1-c1ccccc1 (centres unmarked) [2-(biphenyl-2-ylmethyl)-3-oxo-N-{[6-(trifluoromethyl)pyridin-3-yl]methyl}isoindoline-1-carboxamide] | 6.03 |
| O=C(NCc1ccccc1)C1c2cc(Br)ccc2C(=O)N1Cc1ccccc1 (centres unmarked) [N,2-dibenzyl-6-bromo-3-oxoisoindoline-1-carboxamide] | 6.08 |
| CC(c1ccccc1)N1C(=O)c2ccccc2C1C(=O)NCc1ccccc1 (single isomer, unassigned) [(1R or 1S)-N-benzyl-3-oxo-2-[(1S or 1R)-1-phenylethyl]isoindoline-1-carboxamide] | 5.82 |
| N#Cc1ccc(CNC(=O)C2c3ccccc3C(=O)N2Cc2ccccc2-c2ccccc2)cc1 (centres unmarked) [2-(biphenyl-2-ylmethyl)-N-(4-cyanobenzyl)-3-oxoisoindoline-1-carboxamide] | 5.55 |
| CC(C)(C)NC(=O)C1c2ccccc2C(=O)N1Cc1ccc(F)cc1-c1ccc(F)cc1 (centres unmarked) [N-(tert-butyl)-2-[(4′,5-difluorobiphenyl-2-yl)methyl]-3-oxoisoindoline-1-carboxamide] | 5.03 |

More lines, in order of rising pIC50, values ahead:

| pIC50 | Compound |
| --- | --- |
| 5.55 | CC(CN1C(=O)c2ccc(Cl)cc2C1C(=O)NCc1ccc(S(C)(=O)=O)cc1)c1ccc(Cl)cc1 (centres unmarked) [6-chloro-2-[2-(4-chlorophenyl)propyl]-N-[4-(methylsulfonyl)benzyl]-3-oxoisoindoline-1-carboxamide] |
| 5.60 | CC(C)(C)CN1C(=O)c2ccccc2C1C(=O)NCc1ccc(Cl)c(Cl)c1 (centres unmarked) [N-(3,4-dichlorobenzyl)-2-(2,2-dimethylpropyl)-3-oxoisoindoline-1-carboxamide] |
| 5.74 | CC(CN1C(=O)c2ccccc2C1C(=O)NCc1ccc(N(C)C)cc1)c1ccc(Cl)cc1 (centres unmarked) [2-[2-(4-chlorophenyl)propyl]-N-[4-(dimethylamino)benzyl]-3-oxoisoindoline-1-carboxamide] |
| 5.85 | CC(C)(CO)CN1C(=O)c2ccc(F)cc2C1C(=O)NCc1cccc(OC(F)F)c1 (centres unmarked) [N-[3-(difluoromethoxy)benzyl]-6-fluoro-2-(3-hydroxy-2,2-dimethylpropyl)-3-oxoisoindoline-1-carboxamide] |
| 5.96 | CC(C)(C)NC(=O)C1c2cc(Cl)ccc2C(=O)N1Cc1ccccc1C(F)(F)F (centres unmarked) [N-(tert-butyl)-6-chloro-3-oxo-2-[2-(trifluoromethyl)benzyl]isoindoline-1-carboxamide] |
| 6.00 | CCNC(=O)C1c2cc(Cl)ccc2C(=O)N1Cc1ccccc1-c1ccccc1 (centres unmarked) [2-(biphenyl-2-ylmethyl)-6-chloro-N-ethyl-3-oxoisoindoline-1-carboxamide] |
| 6.21 | CC(CN1C(=O)c2ccccc2C1C(=O)NCCc1c[nH]c2ccccc12)c1ccc(Cl)cc1 (centres unmarked) [2-[2-(4-chlorophenyl)propyl]-N-[2-(1H-indol-3-yl)ethyl]-3-oxoisoindoline-1-carboxamide] |
| 6.38 | O=C(NCc1ccccc1)C1c2cc(Cl)ccc2C(=O)N1Cc1ccccc1-c1ccccc1 (centres unmarked) [N-benzyl-2-(biphenyl-2-ylmethyl)-6-chloro-3-oxoisoindoline-1-carboxamide] |
